Source: publication PMC10525927, “First Generation of Antioxidant Precursors for Bioisosteric Se-NSAIDs: Design, Synthesis, and In Vitro and In Vivo Anticancer Evaluation” (Antioxidants, 2023)

Columns and labels:
[1] = system: 184B5 non-tumorigenic breast (mammary gland) cells; assay: MTT cell viability assay, 184B5; assay type: cell-based; conditions: mean ± SD; for IC50: nonmalignant breast cells
Description: (§1) The cell lines were purchased from the American Type Culture Collection (ATCC). The cancer cell lines DU-145, PC-3, T-47D, MDA-MB-231, H1299, and A549, and the non-tumorigenic cells (184B5 and BEAS-2B), were maintained in RPMI 1640 medium (Gibco, Alcobendas, Madrid, Spain) supplemented with 10% fetal bovine serum (FBS; Gibco) and 1% antibiotics (10.00 units/mL penicillin and 10.00 mg/mL streptomycin; Gibco). Colon cancer cells HT-29 and HCT-116 were cultured in McCoy’s 5A medium (Gibco) supplemented with 10% fetal bovine serum (FBS; Gibco) and 1% antibiotics (10.00 units/mL penicillin and 10.00 mg/mL streptomycin; Gibco). Cells were maintained in tissue culture flasks at 37 °C and 5% CO2. The culture medium was replaced every three days.
(§2) The antiproliferative activity and selectivity in vitro of the Se-NSAID derivatives were determined by the (3-(4,5-dimethylthiazol-2-yl)-2,5-diphenyltetrazolium bromide) (MTT) assay. Compounds were dissolved in DMSO at a concentration of 0.01 M and serial dilutions were prepared. The Se-NSAID derivatives were tested at seven concentrations ranging between 1 and 100 µM in the colon (HT-29 and HCT-116), prostate (DU-145 and PC-3), breast (MDA-MB-231 and T-47D), and lung (H1299 and A549) cancer cell lines. The non-tumorigenic breast (184B5) and lung (BEAS-2B) cell lines were also tested to assess the selectivity of the compounds following the same procedure. A total of 1 × 10^4 cells were seeded per well in 96-well plates and incubated at 5% CO2 and 37 °C for 24 h. Then, cells were treated with either DMSO or increasing concentrations of the corresponding Se-NSAID derivatives for 48 h. A volume of 20 µL of MTT (5 mg/mL) was added to each well 2.5 h before the termination point. At the end of the experiment, the medium was removed, and the resultant formazan crystals formed by mitochondrial reduction of MTT were dissolved in 50 µL of DMSO. Absorbance was measured at 550 nm. IC50, GI50, TGI, and LC50 values were calculated using OriginPro version 8.5.1. software by nonlinear curve fitting. Selectivity indexes (SI) were calculated as the ratio of the IC50 values determined for the nonmalignant and the tumoral cells in the breast (IC50 (184B5)/IC50 (MDA-MB-231) and IC50 (184B5)/IC50 (T-47D)) and lung (IC50 (BEAS-2B)/IC50 (H1299) and IC50 (BEAS-2B)/IC50 (A549)) cell lines. Data were obtained from at least three independent experiments performed in triplicates.

H1299 lung cancer cells = assay: MTT cell viability assay, H1299; assay type: cell-based; conditions: mean ± SD
Description: as §1, §2

In vivo toxicity study = assay: In vivo toxicity study; parameters: species or system mice; conditions: 7.5 mg/Kg IP thrice weekly, 27 days
Description: Female mice of 4–5 weeks of age (The Jackson Laboratory, Bar Harbor, ME, USA) were kept on the daily cycle of 12 h light/dark and received food and water ad libitum throughout the studies. All animal procedures were performed following the National Institutes of Health (NIH) Guide for the Care and Use of Laboratory Animals and protocols were approved by the Animal Care and Use Committee of the Penn State College of Medicine.
Mice were treated either with intraperitoneal doses of 7.5 mg/Kg of compound 5 or with DMSO (vehicle) thrice weekly and kept under observation for 27 days. Body weight, behavior, and food and water intake were monitored every alternate day. At the end of the study, animals were sacrificed by euthanizing the animals by CO2 asphyxiation. The blood serum was withdrawn and subjected to the biochemical analysis of creatinine (mg/dL), AST(SGOT) (U/L), ALT(SGPT) (U/L), Alk. Phos (U/L), and BUN (mg/dL).

HCT-116 cells = assay: Annexin V & Dead Cell apoptosis assay; assay type: cell-based; conditions: HCT-116, 24 h
Description: The capacity of the Se-NSAID derivatives to induce apoptosis was analyzed using both a Caspase 3/7 assay kit and Annexin V & Dead Cell assay kit (EMD Millipore, Darmstadt, Germany). HCT-116 cells were seeded in 6-well plates at a density of 5 × 10^5 cells per well. Cells were treated either with DMSO (control) or with different concentrations of compound 5 and incubated for 24 h. At the end of the treatment, cells were collected and treated with the respective dyes according to the manufacturer’s protocol. For the Caspase 3/7 assay, cells were stained with 5 µL of Muse™ Caspase 3/7 working solution and incubated at 37 °C for 30 min. After incubation, […] of Muse™ Caspase 7-AAD working solution was added and the samples were incubated for another 5 min in the dark at room temperature prior to analysis. For Annexin V assay, cells were stained with 100 µL pf Muse™ Annexin V & Dead Cell Reagent and incubated for 20 min at room temperature in the dark. Samples for both assays were analyzed on a Muse™ Cell Analyzer (Merck Millipore, Darmstadt, Germany) using Muse™ version 1.4. software.

[2] = in vitro TGI concentration, 48 h, Table S1

CC(C)Cc1ccc(C(C)C(=O)[Se][Se]C(=O)C(C)c2ccc(CC(C)C)cc2)cc1 (stereo not drawn) [Compound 5, 2-(4-Isobutylphenyl)propanoic diselenoperoxyanhydride]
IC50 ([1]; 48 h): 18.2 ± 0.8 µM | GI50 ([1]; Homo sapiens, 184B5, 48 h, Table S1): 6.6 ± 1.5 µM | IC50 ([1]; Homo sapiens, 184B5, 48 h): 14 to 19 µM | TGI 184B5 [1, 2]: 11.1 ± 1.4 µM | LD50 H1299 (H1299 lung cancer cells; 48 h, Table S1): 16.5 ± 5.1 µM | IC50 (H1299 lung cancer cells; Homo sapiens, NCI-H1299, 48 h): 9.3 ± 0.6 µM | GI50 (H1299 lung cancer cells; Homo sapiens, NCI-H1299, 48 h, Table S1): 8.1 ± 1 µM | TGI H1299 (H1299 lung cancer cells; [2]): 10.2 ± 1.0 µM | blood serum biochemistry (creatinine, AST, ALT, Alk. Phos, BUN) vs vehicle (In vivo toxicity study; female nude mice, endpoint): no significant changes | behavior and food/water uptake (In vivo toxicity study; mice): no changes | body weight during treatment (In vivo toxicity study; mice): no appreciable variations | Early Apop. cells (HCT-116 cells; 15 μM): ~ 23% | Late Apop./Dead cells (HCT-116 cells; 15 μM): ~ 13% | Live cells (HCT-116 cells; 15 μM): ~ 63% | Dead cells (HCT-116 cells; 25 μM): ~ 10% | Late Apop./Dead cells (HCT-116 cells; 25 μM): ~ 20% | Live cells (HCT-116 cells; 25 μM): ~ 60% | cells detected to be apoptotic (HCT-116 cells; 25 μM): more than 30%
